Assay results as given in patent US20250064875A1, “PHARMACEUTICAL COMPOSITION FOR PREVENTING OR TREATING MUSCLE DISEASES” (KOSA BIO INC., priority 2021, published 2025).

Tests used:
sarcopenia animal model [1] = test: Sarcopenia animal model, body composition by DXA; assay type: in vivo, mice; details: for lean body weight / BMC / BMD(g/cm^2) / fat / fat(%) / tissue area(cm^2): DXA; for lean body weight: C57BL/6 mice, dexamethasone 20 mg/kg i.p. daily, extract 300 mg/kg or FL 0.5 mg/kg oral daily; for BMC / BMD(g/cm^2) / fat / fat(%) / tissue area(cm^2): same model and doses
Experimental: Specifically, male C57BL/6 mice (7 weeks old, Samtako Bio Korea, Korea) were acclimatized, and their body weight (g), lean body weight (g), fat mass (g), and body fat percentage (%) were measured using dual-energy X-ray absorptiometry (DXA). […] A control group consisted of untreated 5 mice (normal mice) at day 0 of treatment. On days 7 and 14 of treatment, the mice were scanned using DXA to measure body weight, lean body weight, fat mass, and body fat percentage; the results are presented in FIG. 14 and Tables 2 and 3.

sarcopenia animal model [2] = test: Sarcopenia animal model, excised tissue weights; assay type: in vivo, mice; details: day 14; for Thymus: dexamethasone 20 mg/kg i.p., extract 300 mg/kg or FL 0.5 mg/kg oral daily
Experimental: Specifically, male C57BL/6 mice (7 weeks old, Samtako Bio Korea, Korea) were acclimatized, and their body weight (g), lean body weight (g), fat mass (g), and body fat percentage (%) were measured using dual-energy X-ray absorptiometry (DXA). […] A control group consisted of untreated 5 mice (normal mice) at day 0 of treatment.

MuRF-1 = test: Inhibition of muscle protein expression (qPCR): MuRF-1; assay type: cell-based; details: cells treated with FL, FV or FI 2.5-20 μg/mL
Description: (§1) The ability of the elderberry extracts and monosaccharide-BCAA conjugate compounds prepared above to inhibit the expression of muscle proteins was confirmed using the qPCR method. Specifically, muscle RING-finger protein-1 (MuRF-1) and atrogin-1, which are both markers of muscle atrophy, and myostatin, which a negative regulator of skeletal muscle mass, were used as target muscle proteins.
(§2) Using the cells treated with the hot water extract, 50% ethanol extract, or 100% ethanol extract of elderberry described in Experimental Example 1-2, qPCR was performed as described above.
(§3) Using the cells treated with FL, FV, or FI as described in Experimental Example 1-3, qPCR was performed as previously outlined.

myostatin = test: Inhibition of muscle protein expression (qPCR): myostatin; assay type: cell-based; details: cells treated with FL, FV or FI 2.5-20 μg/mL
Description: as §1, §2, §3

atrogin-1 = test: Inhibition of muscle protein expression (qPCR): atrogin-1; assay type: cell-based; details: cells treated with FL, FV or FI 2.5-20 μg/mL
Description: as §1, §2, §3

[3] = tested on: C2C12 myoblast cells differentiated to myotubes; test: Inhibition of myocyte apoptosis: MTT cell viability in dexamethasone-treated myotubes; assay type: cell-based; details: 10 μM dexamethasone, FL, FV, FI 2.5-20 μg/mL or amino acid controls, 24 hours, FIGS. 4-6
Experimental: Firstly, C2C12 myoblast cells (from ATCC, USA) were cultured in DMEM supplemented with 10% fetal bovine serum (FBS) and 1% antibiotic-antimycotic at 37° C. under a 5% CO2 atmosphere. Thereafter, the medium was replaced with one containing 2% horse serum (HS) for incubation of additional 72 hours. […] Post-treatment, the cells were observed again under a microscope. The results of the differentiation to myotubes are presented in FIG. 1, and the observations post-dexamethasone treatment in FIG. 2.
After 24 hours, the culture medium was removed, and MTT reagent (5 mg/mL) was added to each well and incubated for 4 hours. Subsequently, DMSO was added to dissolve any precipitates, and the absorbance was read at 570 nm.
Apart from FL, which was found in elderberry extracts, fructose-valine (FV) and fructose-isoleucine (FI) conjugates in which the branched-chain amino acid valine or isoleucine is conjugated to the monosaccharide fructose were also tested for inhibition against myocyte apoptosis. Experiments were conducted in the same manner and conditions as in Experiment Example 1-2, except that FL, FV, or FI was used at concentrations of 2.5, 5, 10, or 20 μg/mL instead of elderberry extracts. As controls, amino acids such as leucine, valine, isoleucine, tryptophan, arginine, tyrosine, glycine, lysine, methionine, phenylalanine, or threonine were used. The cell viability calculated from the treatments with FL, FV, or FI are presented in FIG. 4, and results from amino acid treatments in FIGS. 5 and 6.

TNFα = test: Inhibition of TNFα expression (qPCR) in dexamethasone-treated myotubes; assay type: cell-based; details: cells treated with FL, FV or FI 2.5-20 μg/mL, FIG. 8
Experimental: The cells treated with elderberry extracts as in Experimental Example 1-2 were further treated with trypsin to collect only the cells. After centrifugation of the collected cells at 3,000 rpm for 5 minutes, the supernatant was removed and total RNA was extracted by sequentially treating with RiboEx™ and Hybrid-R™ (GeneAll, Korea). The concentration of the extracted RNA was measured using a Nanodrop, and this RNA was used as a template to synthesize cDNA. The cDNA was synthesized using a mixture of RNA, oligo-(dT) primers, and 2×HyperScript™ RT Master Mix (GeneAll, Korea). Subsequently, real-time PCR (qPCR) was performed using the synthesized cDNA as a template and Power SYBR™ Green PCR Master Mix under standard conditions to confirm the expression of TNFα.
Cells treated with FL, FV, or FI as in Experimental Example 1-3 were trypsinized to collect only the cells, and the level of TNFα expression was examined using the same conditions and methods as described in Experimental Example 2-1.

TM3 cell line = test: Promotion of testosterone secretion (ELISA) in H2O2-treated Leydig cells; assay type: cell-based; details: 500 μM H2O2 6 hours; extract 12.5-100 μg/mL or FL 1.25-10 μg/mL; ELISA of medium; FIG. 9
Experimental: First, the TM3 cell line (from ATCC, USA), which is Leydig cells, were cultured using a standard method. The cultured cells were treated with 500 μM of hydrogen peroxide (H2O2) for 6 hours, followed by the addition of either 12.5, 25, 50, or 100 μg/mL of the hot water extract of elderberry or 1.25, 2.5, 5, or 10 μg/mL of FL (fructose-leucine). Subsequently, ELISA was performed using the cultured cell medium to determine the levels of testosterone, and the results are presented in FIG. 9.

[4] = excised tissue weight, same model and doses
[5] = result in words, sarcopenia mice, 14 days

Compound	lean body weight (sarcopenia animal model [1]; Day 0)	BMC (sarcopenia animal model [1]; Day 0)	BMD(g/cm^2) (sarcopenia animal model [1]; Day 0)	fat (sarcopenia animal model [1]; Day 0)	fat(%) (sarcopenia animal model [1]; Day 0)	tissue area(cm^2) (sarcopenia animal model [1]; Day 0)	lean body weight (sarcopenia animal model [1]; Day 7)	BMC (sarcopenia animal model [1]; Day 7)	BMD(g/cm^2) (sarcopenia animal model [1]; Day 7)	fat (sarcopenia animal model [1]; Day 7)	fat(%) (sarcopenia animal model [1]; Day 7)	tissue area(cm^2) (sarcopenia animal model [1]; Day 7)	lean body weight (sarcopenia animal model [1]; Day 14)	BMC (sarcopenia animal model [1]; Day 14)	BMD(g/cm^2) (sarcopenia animal model [1]; Day 14)	mRNA expression level of MuRF-1 increased by dexamethasone (MuRF-1)	mRNA expression level of myostatin increased by dexamethasone (myostatin)	mRNA expression level of atrogin-1 increased by dexamethasone (atrogin-1)	cell viability reduced by dexamethasone [3]	level of TNFα expression increased by dexamethasone (TNFα)	further results
C[C@@H]1C[C@H]2[C@@H]3CCC4=CC(=O)C=C[C@]4(C)[C@@]3(F)[C@@H](O)C[C@]2(C)[C@@]1(O)C(=O)CO [Dexamethasone, dexamethasone, reference compound]	18.93 ± 1.42 g	0.23 ± 0.13 g	0.057 ± 0.012 g/cm^2	1.44 ± 0.16 g	7.1 ± 1.07%	13.32 ± 2.03 cm^2	17.53 ± 1.36 g	0.16 ± 0.02 g	0.052 ± 0.004 g/cm^2	1.13 ± 0.34 g	5.99 ± 1.53%	12.41 ± 1.31 cm^2	17.47 ± 0.29 g	0.16 ± 0.01 g	0.057 ± 0.004 g/cm^2						fat (sarcopenia animal model [1]; Day 14): 1.56 ± 0.34 g; fat(%) (sarcopenia animal model [1]; Day 14): 8.17 ± 1.58%; tissue area(cm^2) (sarcopenia animal model [1]; Day 14): 13.97 ± 0.51 cm^2; Thymus (sarcopenia animal model [2]; excised tissue weight): 0.009 ± 0.004 g; Muscle (sarcopenia animal model [2]; [4]): 0.501 ± 0.064 g; Spleen (sarcopenia animal model [2]; [4]): 0.026 ± 0.01 g
CC[C@H](C)[C@H](NCC1(O)OC[C@@H](O)[C@@H](O)[C@@H]1O)C(=O)O (stereo partly drawn) [FI, fructose-isoleucine]																significantly decreased	significantly decreased	significantly decreased	significantly restored	significantly suppressed	
CC(C)CC(NCC1(O)OCC(O)C(O)C1O)C(=O)O (stereo not drawn) [FL, fructose-leucine]	18.31 ± 1.43 g	0.19 ± 0.04 g	0.053 ± 0.004 g/cm^2	1.27 ± 0.25 g	6.49 ± 1.03%	13.13 ± 1.08 cm^2	18.05 ± 0.44 g	0.20 ± 0.03 g	0.059 ± 0.009 g/cm^2	1.43 ± 0.53 g	7.31 ± 2.47%	13.83 ± 0.53 cm^2	18.34 ± 0.56 g	0.19 ± 0.04 g	0.056 ± 0.006 g/cm^2	significantly decreased	significantly decreased	significantly decreased	significantly restored	significantly suppressed	concentration of testosterone suppressed by hydrogen peroxide (TM3 cell line): significantly restored; fat (sarcopenia animal model [1]; Day 14): 1.29 ± 0.19 g; fat(%) (sarcopenia animal model [1]; Day 14): 6.57 ± 0.76%; tissue area(cm^2) (sarcopenia animal model [1]; Day 14): 13.66 ± 0.92 cm^2; body weight of the mice (sarcopenia animal model [1]; [5]): restored; lean body weight of the mice (sarcopenia animal model [1]; [5]): restored; tissue areas of the mice (sarcopenia animal model [1]; [5]): restored; Thymus (sarcopenia animal model [2]; excised tissue weight): 0.009 ± 0.002 g; Liver (sarcopenia animal model [2]; [4]): 1.375 ± 0.117 g; Muscle (sarcopenia animal model [2]; [4]): 0.683 ± 0.18 g; Spleen (sarcopenia animal model [2]; [4]): 0.028 ± 0.009 g; weights of the various tissues (sarcopenia animal model [2]; result in words): restored to levels similar to those of the normal control group
CC(C)[C@H](NCC1(O)OC[C@@H](O)[C@H](O)C1O)C(=O)O (stereo partly drawn) [FV, fructose-valine]																significantly decreased	significantly decreased	significantly decreased	significantly restored	significantly suppressed	
